In patent publication EP0025288A1, “Derivatives of monic acid, processes for their preparation, compositions containing them and their preparation” (priority 1979, dated 1981):
Values after ≈ are worked out from the molar mass of the structure shown.

Key:
M. suipneumoniae HK(2) = assay: MIC, anti-mycoplasmal, Friis broth solidified with 0.9% agarose; assay type: cell-based; conditions: Mesomycoplasma hyopneumoniae, 144 h, inoculum 10^3 to 10^5 C.F.U., 6 days incubation at 37°C, read-out: in vitro MIC
Past multocida PA1 = assay: MIC, veterinary bacteria; assay type: cell-based; conditions: veterinary bacteria (Table 2), read-out: MIC
[1] = test system: M. bovigenitalium ATCC 14173; assay: MIC, anti-mycoplasmal, Friis broth solidified with 0.9% agarose; assay type: cell-based; conditions: 144 h, inoculum 10^3 to 10^5 C.F.U., 6 days incubation at 37°C, read-out: in vitro MIC
Strep agalactiae SPA1 = assay: MIC, veterinary bacteria; assay type: cell-based; conditions: veterinary bacteria (Table 2), read-out: MIC
M. suipneumoniae NB12 = assay: MIC, anti-mycoplasmal, Friis broth solidified with 0.9% agarose; assay type: cell-based; conditions: Mesomycoplasma hyopneumoniae, 144 h, inoculum 10^3 to 10^5 C.F.U., 6 days incubation at 37°C, read-out: in vitro MIC
Bord bronchisptica BO9 = assay: MIC, veterinary bacteria; assay type: cell-based; conditions: veterinary bacteria (Table 2), read-out: MIC
Bord bronchiseptica BO8 = assay: MIC, veterinary bacteria; assay type: cell-based; conditions: veterinary bacteria (Table 2), read-out: MIC
M. hyorhinis ATCC 23234 = assay: MIC, anti-mycoplasmal, Friis broth solidified with 0.9% agarose; assay type: cell-based; conditions: Mesomycoplasma hyorhinis, ATCC23234, 144 h, inoculum 10^3 to 10^5 C.F.U., 6 days incubation at 37°C, read-out: in vitro MIC
M. pneumoniae ATCC 15492 = assay: as above; assay type: cell-based; conditions: Mycoplasmoides pneumoniae, ATCC15492, 144 h, inoculum 10^3 to 10^5 C.F.U., 6 days incubation at 37°C, read-out: in vitro MIC
M. suipneumoniae LABER = assay: as above; assay type: cell-based; conditions: Mesomycoplasma hyopneumoniae, 144 h, inoculum 10^3 to 10^5 C.F.U., 6 days incubation at 37°C, read-out: in vitro MIC
[2] = test system: Corynebacterium pyogenes CY1; assay: MIC, veterinary bacteria; assay type: cell-based; conditions: veterinary bacteria (Table 2), read-out: MIC
[3] = test system: M. suipneumoniae NCTC 10110; assay: MIC, anti-mycoplasmal, Friis broth solidified with 0.9% agarose; assay type: cell-based; conditions: Mesomycoplasma hyopneumoniae, NCTC10110, 144 h, inoculum 10^3 to 10^5 C.F.U., 6 days incubation at 37°C, read-out: in vitro MIC
M. suipneumoniae Str. 11 = assay: as above; assay type: cell-based; conditions: Mesomycoplasma hyopneumoniae, 144 h, inoculum 10^3 to 10^5 C.F.U., 6 days incubation at 37°C, read-out: in vitro MIC
Past multocida PA2 = assay: MIC, veterinary bacteria; assay type: cell-based; conditions: veterinary bacteria (Table 2), read-out: MIC
M. dispar NCTC 10125 = assay: MIC, anti-mycoplasmal, Friis broth solidified with 0.9% agarose; assay type: cell-based; conditions: 144 h, inoculum 10^3 to 10^5 C.F.U., 6 days incubation at 37°C, read-out: in vitro MIC
[4] = test system: M. suipneumoniae ATCC 25095; assay: as above; assay type: cell-based; conditions: Mesomycoplasma hyopneumoniae, ATCC25095, 144 h, inoculum 10^3 to 10^5 C.F.U., 6 days incubation at 37°C, read-out: in vitro MIC
[5] = Serum binding by ultrafiltration; assay type: in vitro ADME, pig; conditions: pig, serum, compounds at 8 mcg/ml, microbiological assay (B. subtilis ATCC 6633), read-out: % bound to pig serum (converted)
Description: Serum binding was assessed by ultrafiltration of procine serum containing compounds at 8 mcg/ml, and through an Amicon CF50A ultrafiltration cone. Separation of ultrafiltrate was achieved by centrifugation.

[6] = test system: Strep suis (group D) SPS11; assay: MIC, veterinary bacteria; assay type: cell-based; conditions: veterinary bacteria (Table 2), read-out: MIC
M. suipneumoniae JF 435 = assay: MIC, anti-mycoplasmal, Friis broth solidified with 0.9% agarose; assay type: cell-based; conditions: Mesomycoplasma hyopneumoniae, JF435, 144 h, inoculum 10^3 to 10^5 C.F.U., 6 days incubation at 37°C, read-out: in vitro MIC
[7] = test system: M. suipneumoniae PW/C/210; assay: as above; assay type: cell-based; conditions: Mesomycoplasma hyopneumoniae, 144 h, inoculum 10^3 to 10^5 C.F.U., 6 days incubation at 37°C, read-out: in vitro MIC
Strep dysgalaciae SPD1 = assay: MIC, veterinary bacteria; assay type: cell-based; conditions: veterinary bacteria (Table 2), read-out: MIC
M. suipneumoniae UCD 1 = assay: MIC, anti-mycoplasmal, Friis broth solidified with 0.9% agarose; assay type: cell-based; conditions: Mesomycoplasma hyopneumoniae, UCD1, 144 h, inoculum 10^3 to 10^5 C.F.U., 6 days incubation at 37°C, read-out: in vitro MIC
E coli NCTC 10418 = assay: MIC, veterinary bacteria; assay type: cell-based; conditions: veterinary bacteria (Table 2), read-out: MIC
E coli E1 = assay: MIC, veterinary bacteria; assay type: cell-based; conditions: veterinary bacteria (Table 2), read-out: MIC
[8] = test system: Staph aureus 152 (pen sens); assay: MIC, veterinary bacteria; assay type: cell-based; conditions: Staphylococcus aureus, veterinary bacteria (Table 2), read-out: MIC
Staph aureus Oxford = assay: MIC, veterinary bacteria; assay type: cell-based; conditions: Staphylococcus aureus, veterinary bacteria (Table 2), read-out: MIC
M. bovis NCTC 10131 = assay: microbe, parasite or virus in culture; assay type: cell-based; conditions: NCTC10131, 144 h, read-out: in vitro MIC
[9] = test system: M. hyosynoviae ATCC 25591; assay: MIC, anti-mycoplasmal, Friis broth solidified with 0.9% agarose; assay type: cell-based; conditions: 144 h, inoculum 10^3 to 10^5 C.F.U., 6 days incubation at 37°C, read-out: in vitro MIC
Past Haemolytica PA5 = assay: MIC, veterinary bacteria; assay type: cell-based; conditions: veterinary bacteria (Table 2), read-out: MIC
M. hyorhinis ATCC 25021 = assay: MIC, anti-mycoplasmal, Friis broth solidified with 0.9% agarose; assay type: cell-based; conditions: Mesomycoplasma hyorhinis, ATCC25021, 144 h, inoculum 10^3 to 10^5 C.F.U., 6 days incubation at 37°C, read-out: in vitro MIC
S dublin S7 = assay: MIC, veterinary bacteria; assay type: cell-based; conditions: veterinary bacteria (Table 2), read-out: MIC
M. suipneumoniae TAM 6N = assay: MIC, anti-mycoplasmal, Friis broth solidified with 0.9% agarose; assay type: cell-based; conditions: Mesomycoplasma hyopneumoniae, TAM6N, 144 h, inoculum 10^3 to 10^5 C.F.U., 6 days incubation at 37°C, read-out: in vitro MIC

CC(=CC(=O)OCCCC(=O)c1ccccc1)CC1OCC(CC2OC2C(C)C(C)O)C(O)C1O (centres unmarked) [Example 5, 4-Phenylbutan-4-onyl monate A]
MIC (M. suipneumoniae HK(2)): 0.5 µg/mL (≈ 1.02 µM) | MIC (Past multocida PA1): 1.25 µg/mL (≈ 2.55 µM) | MIC [1]: 0.025 µg/mL (≈ 0.051 µM) | MIC (Strep agalactiae SPA1): 0.625 µg/mL (≈ 1.27 µM) | MIC (M. suipneumoniae NB12): 0.5 µg/mL (≈ 1.02 µM) | MIC (Bord bronchisptica BO9): 5 µg/mL (≈ 10.2 µM) | MIC (Bord bronchiseptica BO8): 40 µg/mL (≈ 81.5 µM) | MIC (M. hyorhinis ATCC 23234): 0.25 µg/mL (≈ 0.51 µM) | MIC (M. pneumoniae ATCC 15492): 1 µg/mL (≈ 2.04 µM) | MIC (M. suipneumoniae LABER): 0.25 µg/mL (≈ 0.51 µM) | MIC [2]: > 80 µg/mL | MIC [3]: 0.5 µg/mL (≈ 1.02 µM) | MIC (M. suipneumoniae Str. 11): 0.25 µg/mL (≈ 0.51 µM) | MIC (Past multocida PA2): 0.312 µg/mL (≈ 0.636 µM) | MIC (M. dispar NCTC 10125): 0.1 µg/mL (≈ 0.204 µM) | MIC [4]: 0.25 µg/mL (≈ 0.51 µM) | fraction unbound [5]: 0.036 | MIC [6]: 5 µg/mL (≈ 10.2 µM) | MIC (M. suipneumoniae JF 435): 0.5 µg/mL (≈ 1.02 µM) | MIC [7]: 0.25 µg/mL (≈ 0.51 µM) | MIC (Strep dysgalaciae SPD1): 0.07 µg/mL (≈ 0.143 µM) | MIC (M. suipneumoniae UCD 1): 0.5 µg/mL (≈ 1.02 µM) | MIC (E coli NCTC 10418): 80 µg/mL (≈ 163 µM) | MIC (E coli E1): 80 µg/mL (≈ 163 µM) | MIC [8]: 0.156 µg/mL (≈ 0.318 µM) | MIC (Staph aureus Oxford): 0.156 µg/mL (≈ 0.318 µM) | MIC (M. bovis NCTC 10131): ≤ 0.01 µg/mL | MIC [9]: 0.05 µg/mL (≈ 0.102 µM) | MIC (Past Haemolytica PA5): 10 µg/mL (≈ 20.4 µM) | MIC (M. hyorhinis ATCC 25021): 0.25 µg/mL (≈ 0.51 µM) | MIC (S dublin S7): > 80 µg/mL | MIC (M. suipneumoniae TAM 6N): 0.5 µg/mL (≈ 1.02 µM)
